Test results from ChEMBL document CHEMBL1201861, “Genomics of Drug Sensitity in Cancer screening data, Wellcome Trust Sanger Institute”.

How the values were obtained:
Assay in all cases: cells
Format in all cases: functional, cell-based
Conditions in all cases: Homo sapiens
LAMA-84 = tested on: LAMA-84;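 further: growth inhibition of LAMA-84 cells, read out with a cell viability assay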
Description: SANGER: Inhibition of human LAMA-84 cell growth in a cell viability assay.

EM-2 = tested on: EM-2;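 further: growth inhibition of EM-2 cells, read out with a cell viability assay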
Description: SANGER: Inhibition of human EM-2 cell growth in a cell viability assay.

NCI-H720 = tested on: NCI-H720;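 further: growth inhibition of human NCI-H720 cells determined by a cell viability assay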
Description: SANGER: Inhibition of human NCI-H720 cell growth in a cell viability assay.

CAS-1 = tested on: CAS-1;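 further: growth inhibition of CAS-1 cells, measured with a cell viability assay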
Description: SANGER: Inhibition of human CAS-1 cell growth in a cell viability assay.

NEC8 = tested on: NEC8;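 further: growth inhibition of human NEC8 cells, read out by a cell viability assay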
Description: SANGER: Inhibition of human NEC8 cell growth in a cell viability assay.

HD-MY-Z = tested on: HD-MY-Z;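 further: growth inhibition of HD-MY-Z cells, read out with a cell viability assay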
Description: SANGER: Inhibition of human HD-MY-Z cell growth in a cell viability assay.

SK-LMS-1 = tested on: SK-LMS-1;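 further: growth inhibition of human SK-LMS-1 cells, read out with a cell viability assay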
Description: SANGER: Inhibition of human SK-LMS-1 cell growth in a cell viability assay.

AM-38 = tested on: AM-38;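 further: growth inhibition of AM-38 cells of human origin, read out by a cell viability assay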
Description: SANGER: Inhibition of human AM-38 cell growth in a cell viability assay.

NCI-H69 = tested on: NCI-H69;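 further: growth inhibition of the cell line, read out with a cell viability assay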
Description: SANGER: Inhibition of human NCI-H69 cell growth in a cell viability assay.

NCI-H82 = tested on: NCI-H82;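 further: growth inhibition of NCI-H82 cells, measured with a cell viability readout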
Description: SANGER: Inhibition of human NCI-H82 cell growth in a cell viability assay.

HCC2218 = tested on: HCC2218;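 further: cell viability assay read-out, with IC50 given as the concentration that inhibits growth of the cell line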
Description: SANGER: Inhibition of human HCC2218 cell growth in a cell viability assay.

NB13 = tested on: NB13;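 further: cell viability readout measuring growth inhibition of human NB13 cells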
Description: SANGER: Inhibition of human NB13 cell growth in a cell viability assay.

CTB-1 = tested on: CTB-1
Description: SANGER: Inhibition of human CTB-1 cell growth in a cell viability assay.

MC116 = tested on: MC116;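 further: growth inhibition of MC116 cells, read out with a cell viability assay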
Description: SANGER: Inhibition of human MC116 cell growth in a cell viability assay.

SNB-75 = tested on: SNB-75;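 further: cell viability assay measuring growth inhibition of human SNB-75 cells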
Description: SANGER: Inhibition of human SNB75 cell growth in a cell viability assay.

TGBC24TKB = tested on: TGBC24TKB;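 further: growth inhibition of human TGBC24TKB cells, read out with a cell viability assay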
Description: SANGER: Inhibition of human TGBC24TKB cell growth in a cell viability assay.

SJSA-1 = tested on: SJSA-1;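 further: growth inhibition of human SJSA-1 cells, read out through a cell viability measurement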
Description: SANGER: Inhibition of human SJSA-1 cell growth in a cell viability assay.

DMS-114 = tested on: DMS-114
KNS-42 = tested on: KNS-42;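 further: growth inhibition of KNS-42 cells, read out with a cell viability assay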
Description: SANGER: Inhibition of human KNS-42 cell growth in a cell viability assay.

LB2241-RCC = tested on: LB2241-RCC;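 further: cell viability assay measuring how strongly the cultured human renal carcinoma line is prevented from growing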
Description: SANGER: Inhibition of human LB2241-RCC cell growth in a cell viability assay.

A101D = tested on: A101D;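 further: growth inhibition of the cell line, measured with a viability assay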
Description: SANGER: Inhibition of human A101D cell growth in a cell viability assay.

KY821 = tested on: KY821;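 further: growth inhibition of human KY821 cells, read out by a cell viability assay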
Description: SANGER: Inhibition of human KY821 cell growth in a cell viability assay.

TGBC1TKB = tested on: TGBC1TKB;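 further: growth inhibition of TGBC1TKB cells, read out by a cell viability assay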
Description: SANGER: Inhibition of human TGBC1TKB cell growth in a cell viability assay.

RKO = tested on: RKO;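 further: growth inhibition of human RKO cells, read out with a cell viability assay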
Description: SANGER: Inhibition of human RKO cell growth in a cell viability assay.

COLO-800 = tested on: COLO-800;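 further: growth inhibition of COLO-800 cells, read out with a cell viability assay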
Description: SANGER: Inhibition of human COLO-800 cell growth in a cell viability assay.

HC-1 = tested on: HC-1;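 further: growth inhibition of HC-1 cells measured by a cell viability assay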
Description: SANGER: Inhibition of human HC-1 cell growth in a cell viability assay.

LS-1034 = tested on: LS-1034
Description: SANGER: Inhibition of human LS-1034 cell growth in a cell viability assay.

KNS-81-FD = tested on: KNS-81-FD;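 further: growth inhibition of KNS-81-FD cells, read out with a cell viability assay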
Description: SANGER: Inhibition of human KNS-81-FD cell growth in a cell viability assay.

L-428 = tested on: L-428
Description: SANGER: Inhibition of human L-428 cell growth in a cell viability assay.

TE-9 = tested on: TE-9;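 further: cell growth inhibition, measured with a cell viability readout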
Description: SANGER: Inhibition of human TE-9 cell growth in a cell viability assay.

CTV-1 = tested on: CTV-1;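 further: growth inhibition of the cell line, read out with a cell viability assay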
Description: SANGER: Inhibition of human CTV-1 cell growth in a cell viability assay.

TE-8 = tested on: TE-8;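 further: growth inhibition of TE-8 cells, measured with a cell viability readout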
Description: SANGER: Inhibition of human TE-8 cell growth in a cell viability assay.

CGTH-W-1 = tested on: CGTH-W-1;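 further: growth inhibition of human CGTH-W-1 cells measured by cell viability assay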
Description: SANGER: Inhibition of human CGTH-W-1 cell growth in a cell viability assay.

RH-1 = tested on: RH-1;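 further: growth inhibition of human RH-1 cells, read out with a cell viability assay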
Description: SANGER: Inhibition of human RH-1 cell growth in a cell viability assay.

COLO-668 = tested on: COLO-668
Description: SANGER: Inhibition of human COLO-668 cell growth in a cell viability assay.

A388 = tested on: A388;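 further: growth inhibition of human A388 cells, read out with a cell viability assay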
Description: SANGER: Inhibition of human A388 cell growth in a cell viability assay.

KGN = tested on: KGN;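 further: growth inhibition of KGN cells, read out with a cell viability assay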
Description: SANGER: Inhibition of human KGN cell growth in a cell viability assay.

SF-539 = tested on: SF-539;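 further: Read-out is a cell viability assay, with IC50 reflecting inhibition of cell growth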
Description: SANGER: Inhibition of human SF539 cell growth in a cell viability assay.

Becker = tested on: Becker;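 further: growth inhibition of Becker cells, read out with a cell viability assay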
Description: SANGER: Inhibition of human Becker cell growth in a cell viability assay.

Mo = tested on: Mo
Description: SANGER: Inhibition of human Mo-T cell growth in a cell viability assay.

SNU-C2B = tested on: SNU-C2B;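 further: cell viability readout used to measure compound-driven suppression of SNU-C2B cell proliferation, IC50 marking half-maximal growth inhibition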
Description: SANGER: Inhibition of human SNU-C2B cell growth in a cell viability assay.

KINGS-1 = tested on: KINGS-1;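 further: cell viability assay measuring suppression of KINGS-1 cell growth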
Description: SANGER: Inhibition of human KINGS-1 cell growth in a cell viability assay.

NCI-H747 = tested on: NCI-H747;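 further: growth inhibition of human NCI-H747 cells, read out by a cell viability assay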
Description: SANGER: Inhibition of human NCI-H747 cell growth in a cell viability assay.

MSTO-211H = tested on: MSTO-211H
Description: SANGER: Inhibition of human MSTO-211H cell growth in a cell viability assay.

LB1047-RCC = tested on: LB1047-RCC;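 further: inhibition of cell growth, determined with a cell viability assay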
Description: SANGER: Inhibition of human LB1047-RCC cell growth in a cell viability assay.

HOP-62 = tested on: HOP-62;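 further: cell growth inhibition determined with a viability assay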
Description: SANGER: Inhibition of human HOP-62 cell growth in a cell viability assay.

SF-126 = tested on: SF-126;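 further: growth inhibition of human SF126 cells, read out with a cell viability assay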
Description: SANGER: Inhibition of human SF126 cell growth in a cell viability assay.

COLO-320-HSR = tested on: COLO-320-HSR;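 further: growth inhibition of COLO-320-HSR cells, determined with a cell viability assay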
Description: SANGER: Inhibition of human COLO-320-HSR cell growth in a cell viability assay.

DSH1 = tested on: DSH1;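 further: growth inhibition of human DSH1 cells, measured with a cell viability readout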
Description: SANGER: Inhibition of human DSH1 cell growth in a cell viability assay.

MFM-223 = tested on: MFM-223
Description: SANGER: Inhibition of human MFM-223 cell growth in a cell viability assay.

EOL1 = tested on: EOL1;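 further: growth inhibition of EoL-1 cells, read out by a cell viability assay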
Description: SANGER: Inhibition of human EoL-1-cell cell growth in a cell viability assay.

HCC1187 = tested on: HCC1187;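 further: growth inhibition of HCC1187 cells, read out with a cell viability assay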
Description: SANGER: Inhibition of human HCC1187 cell growth in a cell viability assay.

NCI-H1395 = tested on: NCI-H1395;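 further: cell viability assay read-out quantifying reduced proliferation of human NCI-H1395 cells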
Description: SANGER: Inhibition of human NCI-H1395 cell growth in a cell viability assay.

SK-N-DZ = tested on: SK-N-DZ;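 further: growth inhibition of the cancer cell line, read out through a viability assay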
Description: SANGER: Inhibition of human SK-N-DZ cell growth in a cell viability assay.

U-266 = tested on: U-266
Description: SANGER: Inhibition of human U-266 cell growth in a cell viability assay.

ES1 = tested on: ES1
Description: SANGER: Inhibition of human ES1 cell growth in a cell viability assay.

GR-ST = tested on: GR-ST
Description: SANGER: Inhibition of human GR-ST cell growth in a cell viability assay.

NCI-H1650 = tested on: NCI-H1650
Description: SANGER: Inhibition of human NCI-H1650 cell growth in a cell viability assay.

BB30-HNC = tested on: BB30-HNC
Description: SANGER: Inhibition of human BB30-HNC cell growth in a cell viability assay.

ALL-PO = tested on: ALL-PO
Description: SANGER: Inhibition of human ALL-PO cell growth in a cell viability assay.

NCI-H226 = tested on: NCI-H226
Description: SANGER: Inhibition of human NCI-H226 cell growth in a cell viability assay.

NB10 = tested on: NB10
Description: SANGER: Inhibition of human NB10 cell growth in a cell viability assay.

HDLM-2 = tested on: HDLM-2
Description: SANGER: Inhibition of human HDLM-2 cell growth in a cell viability assay.

TE-12 = tested on: TE-12
Description: SANGER: Inhibition of human TE-12 cell growth in a cell viability assay.

NCI-H1355 = tested on: NCI-H1355
Description: SANGER: Inhibition of human NCI-H1355 cell growth in a cell viability assay.

GB-1 = tested on: GB-1
Description: SANGER: Inhibition of human GB-1 cell growth in a cell viability assay.

In the case of Cc1[nH]c(/C=C2\C(=O)Nc3ccc(S(=O)(=O)Cc4c(Cl)cccc4Cl)cc32)c(C)c1C(=O)N1CCC[C@@H]1CN1CCCC1 [PHA-665752], the IC50 (LAMA-84) is reported as > 2 µM, the IC50 (EM-2) is reported as > 2 µM and the IC50 (NCI-H720) is reported as > 2 µM. For the same molecule, the IC50 (CAS-1) was > 2 µM, the IC50 (NEC8) was > 2 µM and the IC50 (HD-MY-Z) was > 2 µM. For the same molecule, the IC50 (SK-LMS-1) was 0.898 µM, the IC50 (AM-38) was > 2 µM and the IC50 (NCI-H69) was > 2 µM. The IC50 (NCI-H82) was > 2 µM, the IC50 (HCC2218) was > 2 µM and the IC50 (NB13) was > 2 µM. The IC50 (CTB-1) was > 2 µM, the IC50 (MC116) was > 2 µM and the IC50 (SNB-75) was > 2 µM. For the same molecule, the IC50 (TGBC24TKB) was > 2 µM, the IC50 (SJSA-1) was > 2 µM and the IC50 (DMS-114) was > 2 µM. The IC50 (KNS-42) was > 2 µM, the IC50 (LB2241-RCC) was 0.157 µM and the IC50 (A101D) was > 2 µM. For the same molecule, the IC50 (KY821) was > 2 µM, the IC50 (TGBC1TKB) was > 2 µM and the IC50 (RKO) was > 2 µM. The IC50 (COLO-800) was > 2 µM, the IC50 (HC-1) was > 2 µM and the IC50 (LS-1034) was > 2 µM. For the same molecule, the IC50 (KNS-81-FD) was > 2 µM, the IC50 (L-428) was > 2 µM and the IC50 (TE-9) was > 2 µM. For the same molecule, the IC50 (CTV-1) was > 2 µM, the IC50 (TE-8) was > 2 µM and the IC50 (CGTH-W-1) was > 2 µM. For the same molecule, the IC50 (RH-1) was > 2 µM, the IC50 (COLO-668) was > 2 µM and the IC50 (A388) was > 2 µM. The IC50 (KGN) was > 2 µM, the IC50 (SF-539) was > 2 µM and the IC50 (Becker) was > 2 µM. The IC50 (Mo) was > 2 µM, the IC50 (SNU-C2B) was > 2 µM and the IC50 (KINGS-1) was 0.359 µM. The IC50 (NCI-H747) was > 2 µM, the IC50 (MSTO-211H) was > 2 µM and the IC50 (LB1047-RCC) was > 2 µM. For the same molecule, the IC50 (HOP-62) was > 2 µM, the IC50 (SF-126) was > 2 µM and the IC50 (COLO-320-HSR) was > 2 µM. For the same molecule, the IC50 (DSH1) was > 2 µM, the IC50 (MFM-223) was > 2 µM and the IC50 (EOL1) was > 2 µM. For the same molecule, the IC50 (HCC1187) was > 2 µM, the IC50 (NCI-H1395) was > 2 µM and the IC50 (SK-N-DZ) was > 2 µM. For the same molecule, the IC50 (U-266) was > 2 µM, the IC50 (ES1) was > 2 µM and the IC50 (GR-ST) was > 2 µM. For the same molecule, the IC50 (NCI-H1650) was > 2 µM, the IC50 (BB30-HNC) was > 2 µM and the IC50 (ALL-PO) was 0.813 µM. The IC50 (NCI-H226) was > 2 µM, the IC50 (NB10) was > 2 µM and the IC50 (HDLM-2) was > 2 µM. For the same molecule, the IC50 (TE-12) was > 2 µM, the IC50 (NCI-H1355) was > 2 µM and the IC50 (GB-1) was > 2 µM.
CC(C)=CC[C@@H](O)C1=CC(=O)c2c(O)ccc(O)c2C1=O [SHIKONIN] was tested, and the IC50 (LAMA-84) was 1.21 µM, the IC50 (EM-2) was 0.977 µM and the IC50 (NCI-H720) was > 16 µM. For the same molecule, the IC50 (CAS-1) was 0.462 µM, the IC50 (NEC8) was 0.84 µM and the IC50 (HD-MY-Z) was 0.47 µM. The IC50 (SK-LMS-1) was 0.108 µM, the IC50 (AM-38) was 0.0963 µM and the IC50 (NCI-H69) was 6.71 µM. For the same molecule, the IC50 (NCI-H82) was > 16 µM, the IC50 (HCC2218) was 0.496 µM and the IC50 (NB13) was 0.317 µM. The IC50 (CTB-1) was 0.859 µM, the IC50 (MC116) was 1.79 µM and the IC50 (SNB-75) was 0.746 µM. For the same molecule, the IC50 (TGBC24TKB) was > 16 µM, the IC50 (SJSA-1) was 5.53 µM and the IC50 (DMS-114) was > 16 µM. The IC50 (KNS-42) was > 16 µM, the IC50 (LB2241-RCC) was 1.29 µM and the IC50 (A101D) was < 0.0625 µM. It also gave an IC50 (KY821) of 0.747 µM, an IC50 (TGBC1TKB) of 1.43 µM and an IC50 (RKO) of 0.27 µM. The IC50 (COLO-800) was > 16 µM, the IC50 (HC-1) was > 16 µM and the IC50 (LS-1034) was 2.75 µM. The IC50 (KNS-81-FD) was 1.08 µM, the IC50 (L-428) was 1.21 µM and the IC50 (TE-9) was 0.408 µM. The IC50 (CTV-1) was > 16 µM, the IC50 (TE-8) was 1.28 µM and the IC50 (CGTH-W-1) was 0.5 µM. For the same molecule, the IC50 (RH-1) was 0.72 µM, the IC50 (COLO-668) was 6.2 µM and the IC50 (A388) was 0.867 µM. For the same molecule, the IC50 (KGN) was 1.31 µM, the IC50 (SF-539) was 0.857 µM and the IC50 (Becker) was 1.58 µM. The IC50 (Mo) was 0.82 µM, the IC50 (SNU-C2B) was > 16 µM and the IC50 (KINGS-1) was 14.1 µM. For the same molecule, the IC50 (NCI-H747) was 0.441 µM, the IC50 (MSTO-211H) was > 16 µM and the IC50 (LB1047-RCC) was 0.302 µM. The IC50 (HOP-62) was 1.16 µM, the IC50 (SF-126) was 0.773 µM and the IC50 (COLO-320-HSR) was 0.384 µM. The IC50 (DSH1) was 10.6 µM, the IC50 (MFM-223) was 0.899 µM and the IC50 (EOL1) was 0.509 µM. The IC50 (HCC1187) was 1.02 µM, the IC50 (NCI-H1395) was > 16 µM and the IC50 (SK-N-DZ) was 1.8 µM. It also gave an IC50 (U-266) of 0.675 µM, an IC50 (ES1) of 0.503 µM and an IC50 (GR-ST) of 0.102 µM. The IC50 (NCI-H1650) was 1.38 µM, the IC50 (BB30-HNC) was 0.243 µM and the IC50 (ALL-PO) was 0.315 µM. For the same molecule, the IC50 (NCI-H226) was 0.645 µM, the IC50 (NB10) was 1.34 µM and the IC50 (HDLM-2) was > 16 µM. The IC50 (TE-12) was 2.34 µM, the IC50 (NCI-H1355) was 2.82 µM and the IC50 (GB-1) was 1.33 µM.
